Patent publication US20140120181A1, “COMPOSITION COMPRISING PHOSPHATIDYLCHOLINE AS AN ACTIVE INGREDIENT FOR ATTENUATING TOXICITY OF ANTICANCER AGENT” (AMI Pharm Co., Ltd., priority 2011, published 2014)
Entries after “also recorded” stand apart in the source; their conditions may differ.

How the values were obtained:
[1] = test system: BUN (blood urea nitrogen) and creatinine; test: Test on a kidney function (serum BUN and creatinine), cisplatin nephrotoxicity, intra-peritoneal PC; format: in vivo, SD rats; details: PC i.p. 1 hour after CDDP 5 mg/kg i.p.
Description: The separated serum was used to measure BUN (blood urea nitrogen) and creatinine.
The measurement of BUN was carried out by using a BUN measuring kit (Young dong diagnostics) in the same manner as described below. A urea agent 0.1 ml was mixed with buffer 20 ml to prepare enzyme buffer, and the prepared enzyme buffer was added to each of 2 test tubes. To one of the test tubes, a to-be-tested serum sample 0.02 ml was added, and to the other test tube, a control reference solution [containing urea-N 60 mg/100 ml] 0.02 ml was added, followed by culturing at 37° C. for 15 min. Then, each test tube was added with chromogenic solution 2 ml, and cultured at 37° C. for 5 min again. By measuring the absorbance at 570 nm, the level of produced BUN was measured.
The measurement of creatinine was carried out by using a creatinine measuring kit (young dong diagnostics) in the same manner as described below. […] Exactly after 15 min, at 515 nm, absorbency was measured.

[2] = Measurement of body weight change during the test period; format: in vivo, SD rats; details: for change of body weight: 6 days
Description: 6-week aged male SD rats (albino S.D rat) were bought, stabilized for 1 week, and then divided into 6 groups noted in [table 1] for the test. Breeding environment conditions of 24±2° C., and 12-hour light-dark cycles were maintained, and non-antibiotic general solid feed was used.
For all groups, an agent was administered through intraperitoneal injection.
They were bred while changes in their body weights were measured for 6 days. Then, after they were euthanized, their blood samples 5 cc were collected by a cardiac puncture, and their kidneys were extracted for used in a test.
During the test period, a body weight of the test group was measured.

rats = test: Lethality after 6 days, CDDP with or without PC; format: in vivo, SD rats; details: PC 400 mg/kg i.p. alone (group 8)
Description: As noted in [table 3], a test group was prepared, and administered with a drug. After 6 days, lethality was calculated. An administration method, a test animal and a breeding method, etc. were the same as those in Example <1-1>.

ICR mice = test: Lethality reducing effect by paclitaxel (LD50 of paclitaxel with PC pretreatment); format: in vivo; details: PC 0, 300, 600 mg/kg i.p. 4 hours before Taxol i.p.; lethality after 24 hours, FIG. 8; listed as phosphatidylcholine
Description: 6-week aged ICR mice (Samtako, Korea) were bought, and divided into 15 groups noted in table 5. They were stabilized for 20 hrs under conditions of 24±2° C., and 12-hour light-dark cycles while being fed with non-antibiotic general solid feed. […] After being stabilized, the mice were intra-peritoneally injected with the same phosphatidylcholine as that used in <Example 1-1>. After 4 hours, Taxol™ (BMS©, paclitaxel 6 mg/ml) was intra-peritoneally injected to the mice in which its amount was adjusted in such a manner that paclitaxel can be administered in an amount noted in table 5 below.
After 24 hours from administration of taxol, lethality of mice was measured. Based on the measured data on lethality, LD50 (a paclitaxel dose at lethality of 50%) in each of A, B, and C groups was measured.

kidney tissues = test: Observation of a morphological change in kidney tissues (H&E, optical microscope); format: in vivo, SD rats; details: CDDP 5 mg/kg i.p. alone (group 3), FIG. 3-B
Description: A rats kidney obtained from Example <1-1> was fixed in 10% neutral formalin, sliced by microtechnique, and subjected to haematoxylin & eosin staining through a general tissue processing process. Each of the stained kidney tissues was observed by an optical microscope.

[3] = test system: BUN (blood urea nitrogen) and creatine; test: Analysis of kidney function (serum BUN and creatine), oral administration of PC; format: in vivo, Wistar-Hanover rats; details: cisplatin 6 mg/kg i.p. alone (group 13), 6 days, FIG. 4
Description: Cisplatin and phosphatidylcholne were used as same as Example 1. But, phosphatidylcholne was suspended in 100 mg/ml of distilled water.
Thirty-six of 6-week-old adult male Wistar-Hanover rats (Nara-biotechnology, Seoul, Korea) were purchased and quarantined for 1 week and divided into 6 groups as shown in Table 4. They were maintained at 22±2° C. in 12 hour light dark cycle, and were given a normal laboratory diet (Purina. Korea) and fresh water ad libitum. Their body weight were 200˜220 g. After quarantine period, rats were fasted for 24 hours prior to injection of first phosphatidylcholine, but were allowed free access to water throughout.
In all groups, saline and cisplatin were injected intraperitoneally and phosphatidylcholine was administered orally. […]
Blood collected in Example <2-1> was centrifuged at 4000 rpm for 10 min and serum was separated. The level of BUN (blood urea nitrogen) and creatine in serum was measured.
The level of BUN was measured by Urase-GLDH method (Laboratory reference values. Urea nitrogen (BUN). Rochester, Minn.: Mayo Foundation for Medical Education and Research; November 2010), creatine was measured by Jaffe method (Jaffe method, Lamb E et al, tiez textbook of clinical chemistry and molecular diagnosis, St. louis; elsevier saunders, 2006; 791-801) and the contents were measured Beckman Coulter AU5421 (Beckman Coulter, USA).

[4] = test system: MDA (malondialdehyde) in kidney tissue; test: Quantification of lipid peroxidation (MDA) in kidney tissue; format: in vivo, Wistar-Hanover rats; details: cisplatin 6 mg/kg i.p. only (group 13), FIG. 5
Description: (§1) Kidney samples collected from example <2-1> were immediately removed, washed in 0.9% saline and weighed. The kidneys were the mince with scissors, were homogenized in 0.1M Tris-HCl buffer (pH 7.4). The homogenization was carried out in Teflon-glass homogenizer (Bandelin, Germany) to obtain 1:10 (w/v) dilution. The homogenate was stored at −70° C. until analysis.
Degradation products of lipid peroxidate comprise a lot of carbonyl compounds and the representative is malondialdehyde, MDA. Therefore, the level of lipid peroxidation can be measured by quantification of MDA.
For quantification of MDA, the method of Buege and Aust (1978) were used. The samples were centrifuged at 12,000 g at 4° C. for 15 min, then 0.3 ml supernatant was removed and mixed with 0.9 ml of 8% trichloroacetic acid (TCA). The sample was again centrifuged at 10,000 g at 4° C. for 5 min. A 1 ml aliquot of supernatant was added to 0.25 ml of 1% TBA, and the resulting solution was heated at 100° C. for 20 min. […] After centrifugation at 3,000 g at 4° C. for 5 min, 1 ml of the n-butanol phase was isolated and the absorbance at 532 nm was measured. The standard curve of MDA was calculated from the absorbance and the amount of MDA per weight of tissue was measured and it is shown in FIG. 5A.
MDA content was calculated with MDA standards (Buege and Aust 1978).

[5] = test system: GSH (glutathione) in kidney tissue; test: Quantification of GSH (glutathione) in kidney tissue; format: in vivo, Wistar-Hanover rats; details: cisplatin 6 mg/kg i.p. only (group 13), FIG. 6
Description: as §1
The total GSH content of kidney tissue prepared in the Example <2-3> was determined using a modification of the method of Beutler et al. (Beutler, Duron et al. 1963). The method uses principle that when DTNB (5′5-dithiobis-2-nitro-benzoic acid) and GHS react, 2-nitro-5-thiobenzoic acid (yellow color) are produced. Therefore, the concentration of GSH can be determined by measuring absorbance at 412 nm.
A mitochondrial fraction was prepared by centrifugation at 600 g for 5 mins and samples were added to 5% of metaphosphoric acid (MPA) and allowed to stand for 5 mins to precipitate proteins. 1M of Phosphate buffer (pH 7.0) was added to proteins in the volumetric ratio of 1:4 for homogenization and DTNB (5′5-dithiobis-2-nitro-benzoic acid) were added to proteins in the volumetric ratio of 8:5 for color development. GSH was determined by measuring absorbance at 415 nm (shimadzu UV-1240) and absolute concentrations were calculated using a GSH standard (Sigma, USA).

[6] = test system: catalase, GPx (glutathione peroxidase), SOD (superoxide dismutase); test: Activity of catalase, GPx, SOD in kidney tissue; format: in vivo, Wistar-Hanover rats; details: cisplatin 6 mg/kg i.p. only (group 13), FIG. 7
Description: as §1
The activities of catalase, GPx, SOD which are anti-oxidative enzymes in kidney tissue were measured by a commercial kit.
Since catalase decomposes H2O2 into water and oxygen, the activity of CAT was measured through decreased absorbance by decomposition of H2O2. The absorbance was measured by using catalase assay kit (Sigma, CAT #100).
The activity of GPx was measured by using Glutathione peroxidase cellular activity assay kit CGP-1 (Sigma Aldrich, Cat. #CGP1). […] The decrease in NADPH absorbance measured at 340 nm, during the oxidation of NADPH to NADP is was indicative of GPx activity.
The activity of SOD is measured using the SOD assay kit (19160 SOD determination kit, Fluka/sigma Aldrich). The amount inhibiting 50% of xanthine oxidase activity per 1 mg of protein was set as 1 unit and the absorbance was measured at 450 nm.

| SMILES | PC dose at which nephrotoxicity caused by CDDP was reduced [1] [mg/kg] | change of body weight ([2]; PC 400 mg/kg i.p. alone (group 2)) | lethal rate (rats) [%] | LD50 of paclitaxel (ICR mice) | change of body weight ([2]; CDDP 5 mg/kg i.p. alone (group 3)) [%] | change of body weight ([2]; CDDP 5 mg/kg i.p. alone (group 3), listed as cisplatin) | body weight decreased by ([2]; CDDP 5 mg/kg i.p. alone (group 3), test period) | morphological change in kidney tissues (kidney tissues) | BUN level in serum [3] | creatine level in serum [3] | MDA level in kidney tissue [4] | level of glutathione in kidney tissue [5] | levels of the anti-oxidative enzymes (catalase, GPx, SOD) in kidney tissue [6] |
| --- | --- | --- | --- | --- | --- | --- | --- | --- | --- | --- | --- | --- | --- |
| CCCCC/C=C/CCCCCCCC(=O)OC(COC(=O)CCCCCCCCCCCCC)COP(=O)([O-])OCC[N+](C)(C)C [PC, 1,2-diacyl-L-3-glycerylphosphorylcholine] | ≥ 600 | +9.2% | 0 | tends to increase; also recorded: increases depending on dosage of phosphatidylcholine |  |  |  |  |  |  |  |  |  |
| N.N.[Cl][Pt][Cl] [CDDP, cis-dichlorodiammineplatinum] |  |  |  |  | −7.1 | reduction in body weight | about 7.1% | most epithelial cells in a proximal part and a distal part of the kidney showed a necrotic change through an inflammatory reaction | increase | increase | very high compared to control group 11 | significantly low compared to control group 11 | significantly reduced compared to control group 11 |
